Assays:
[1] = PK study in monkeys (intravenous and oral); format: in vivo, cynomolgus monkeys
Experimental: Male cynomolgus monkeys were supplied from Prestasi Fauna Nusantara Ltd. (Jakarta, Indonesia) and were housed at Shin Nippon Biomedical Laboratories, Ltd. The PK study was performed in a cross-over design with 7 days interval between the doses for monkeys aged 3–4 years old. Monkeys were fasted a day before the PK study and feeding was resumed 4 h postdose. Dosing solution of lenvatinib used was the same as that in the other animal PK studies. Lenvatinib was intravenously administered at the dose of 3 mg/kg via cephalic vein. In oral administration, lenvatinib at 3 mg/kg was dosed by using a nasogastric catheter, followed by giving 30 mL of water to flush the remaining dosing solution in the catheter. The number of monkeys at each dose was four. Approximately 0.5 mL of blood samples were serially collected from the femoral vein using a heparinized syringe at pre-dose, and at 5, 15 and 30 min, and 1, 2, 4, 6, 8, 12 and 24 h post-dose. Plasma sample preparation and sample storage were the same as those in the other PK studies.
(§1) PK parameters of lenvatinib were estimated by model independent analysis using a WinNonlin program (Version 4.1, Pharsight Corporation, Mountain View, CA). The time to reach the maximum plasma concentration (Tmax) and the maximum plasma concentration (Cmax) values were obtained directly from the plasma concentration data. Terminal half-life (T1/2) was calculated by ln2/ke, where ke is the slope of the regression line that fits the portion of the terminal phase (at least three time points) in the log-linear concentration–time curve. AUC0–t and AUMC0–t, the area under the concentration–time curves and the area under the first moment curve, from time = zero to time = t, respectively, were calculated using the lenvatinib concentrations in plasma by the linear/log trapezoidal method. AUC0–inf was calculated by AUC0–t + Ct/ke, and AUMC0–inf was AUMC0–t + Ct × t/ke + Ct/(ke)^2, where Ct is the last measurable concentration at time = t. The plasma concentration at time zero for the intravenous dose was extrapolated, while zero was used for the oral doses. Mean residence time (MRT), total plasma clearance (CLtot) and the volume of distribution at steady state (Vdss) were calculated by AUMC0–inf/AUC0–inf, Dose/AUC0–inf and CLtot × MRT, respectively. Oral bioavailability (F) was estimated by comparing dose-normalized AUC0–inf after oral (AUC0–inf.po) and intravenous (AUC0–inf.iv) administration as follows: F (%) = (AUC0–inf.po/AUC0–inf.iv) × 100.

[2] = test system: plasma protein; assay: in vitro plasma protein binding, mice; format: in vitro ADME; conditions: mouse
[3] = test system: plasma protein; assay: in vitro plasma protein binding, rats; format: in vitro ADME
[4] = test system: plasma protein; assay: in vitro plasma protein binding, dogs; format: in vitro ADME
[5] = test system: plasma protein; assay: in vitro plasma protein binding, monkeys; format: in vitro ADME
[6] = Allometric PK scaling, prediction of CLint in humans; conditions: cross-species allometric scaling, BW 70 kg
Experimental: One of the typical approaches for predicting human PK from animal PK is empirical allometric scaling. As the CLtot of lenvatinib was relatively low and Vdss of lenvatinib was low to medium, thus it is theoretically preferable to correct by fp for both parameters. The CLtot divided by fp (CLtot/fp) or Vdss divided by fp (Vdss/fp) were plotted against body weight (BW) by log–log scale, and a linear regression was performed to estimate a slope and intercept for linear regression. The BW used in the calculation was 0.02, 0.2, 10, 5, and 70 kg for mice, rats, dogs, monkeys, and humans, respectively. CLtot and Vdss of lenvatinib in humans were predicted by using the regression line and the BW of humans. As no PK data of lenvatinib are available for CLtot and Vdss, which can be estimated only from intravenous administration PK study in humans, it is not possible to assess predictability of the allometric scaling for these two parameters of lenvatinib in humans. However, it is possible to predict exposure of lenvatinib after oral administration (AUCoral) in humans from the allometry scaling of hepatic intrinsic clearance (CLint). […]

[7] = phase-1 clinical trial, oral PK in humans; format: in vivo; conditions: human, plasma; calculated from AUCoral at 9 mg oral dose in a phase-1 study and fp 0.0172; read-out: observed CLint in humans (converted)
[8] = Cross-species PK summary (mice, rats, dogs, monkeys); format: in vivo, and monkeys; conditions: for bioavailability: rat, rats
Experimental: as §1
One of the typical approaches for predicting human PK from animal PK is empirical allometric scaling. As the CLtot of lenvatinib was relatively low and Vdss of lenvatinib was low to medium, thus it is theoretically preferable to correct by fp for both parameters. The CLtot divided by fp (CLtot/fp) or Vdss divided by fp (Vdss/fp) were plotted against body weight (BW) by log–log scale, and a linear regression was performed to estimate a slope and intercept for linear regression. The BW used in the calculation was 0.02, 0.2, 10, 5, and 70 kg for mice, rats, dogs, monkeys, and humans, respectively. CLtot and Vdss of lenvatinib in humans were predicted by using the regression line and the BW of humans. As no PK data of lenvatinib are available for CLtot and Vdss, which can be estimated only from intravenous administration PK study in humans, it is not possible to assess predictability of the allometric scaling for these two parameters of lenvatinib in humans. However, it is possible to predict exposure of lenvatinib after oral administration (AUCoral) in humans from the allometry scaling of hepatic intrinsic clearance (CLint). As lenvatinib is mainly cleared by the liver, AUCoral is estimated by Fa × Fg × Dose/(fp × CLint)[9], where Fa, Fg, fp, and CLint are absorption at the gastrointestinal (GI) tract, metabolic availability at the GI, unbound fraction in plasma, and hepatic intrinsic clearance, respectively. The CLint is thus estimated by Fa × Fg × Dose/(fp × AUCoral) in all the animal species including humans just from PK data from oral administration. The allometric scaling approach was applied for CLint in mice, rats, dogs, and monkeys. The logarithmic plot of CLint and BW was performed for a linear regression and a regression line [log (CLint) = slope × log (BW) + intercept], which was derived by logarithmic transformation of the equation CLint = a × BW^b was obtained. The CLint predicted from the allometric scaling was compared to the observed CLint after oral administration of lenvatinib at 9 mg in humans.

[9] = male, cynomolgus monkey, plasma, intravenous 3 mg/kg
[10] = male, cynomolgus monkey, plasma, oral 3 mg/kg
[11] = male, cynomolgus, cynomolgus monkey, plasma, oral 3 mg/kg

CLint (hepatic intrinsic clearance) ([1]; estimated from oral PK, Fa and Fg assumed unity, BW 5 kg): 37,063 mL/h | MRT [1, 9]: 3.32 ± 0.15 h | half-life [1, 9]: 257 ± 20.4 min | Cmax [1, 10]: 2500 ± 450 ng/mL | MRT [1, 10]: 4.23 ± 0.31 h | Tmax ([1]; male, cynomolgus monkey, plasma, oral 3 mg/kg, median (range)): 2 h | AUC(0-inf) ([1]; male, cynomolgus, cynomolgus monkey, plasma, intravenous 3 mg/kg): 12900 ± 1060 ng·h/mL | C0 ([1]; male, cynomolgus, cynomolgus monkey, plasma, intravenous 3 mg/kg, extrapolated): 5170 ± 949 ng/mL | clearance ([1]; male, cynomolgus, cynomolgus monkey, plasma, intravenous 3 mg/kg, read-out: CLtot (converted)): 3.97 mL/min/kg | Vd ([1]; male, cynomolgus, cynomolgus monkey, plasma, intravenous 3 mg/kg, read-out: Vdss): 0.794 ± 0.0882 L/kg | AUC(0-inf) [1, 11]: 10300 ± 1510 ng·h/mL | half-life [1, 11]: 244 ± 17.4 min | bioavailability ([1]; male, cynomolgus, cynomolgus monkey, plasma, oral 3 mg/kg vs intravenous 3 mg/kg, read-out: F (oral bioavailability)): 78.4 ± 5.4% | fraction unbound ([2]; plasma, mice, 0.3–30 μg/mL, read-out: average fp (unbound fraction in plasma)): 0.033 | fraction unbound at 0.3 μg/mL ([2]; mice plasma, 0.3 μg/mL): 0.031 | fraction unbound at 0.3 μg/mL ([3]; rat plasma, 0.3 μg/mL): 0.019 | fraction unbound ([3]; rat, plasma, rats, 0.3–30 μg/mL, read-out: average fp (unbound fraction in plasma)): 0.02 | fraction unbound at 0.3 μg/mL ([4]; dog plasma, 0.3 μg/mL): 0.084 | fraction unbound ([4]; dog, plasma, dogs, 0.3–30 μg/mL, read-out: average fp (unbound fraction in plasma)): 0.089 | fraction unbound at 0.3 μg/mL ([5]; monkey plasma, 0.3 μg/mL): 0.039 | fraction unbound ([5]; monkey, plasma, monkeys, 0.3–30 μg/mL, read-out: average fp (unbound fraction in plasma)): 0.0394 | CLint predicted in humans [6]: 78.4 mL/min/kg | CLint scaled [7]: 75.1 mL/min/kg | availability in the intestine ([8]; calculated from CLtot (iv), blood-to-plasma partition, hepatic blood flow, and bioavailability): > 0.7 | clearance ([8]; mouse, dog, monkey, plasma, the other three species (mice, dogs, monkeys), intravenous 3 mg/kg, read-out: CLtot): 3.97 to 6.13 mL/min/kg | bioavailability ([8]; mouse, dog, monkey, plasma, oral, 3 mg/kg, mice, dogs, monkeys, read-out: average bioavailability in the four species): 70% | bioavailability ([8]; mouse, dog, monkey, plasma, po, 3 mg/kg, range over mice, dogs, and monkeys, read-out: oral bioavailability): 64.4 to 78.4% | bioavailability ([8]; mouse, dog, monkey, plasma, po, range over mice, dogs, and monkeys, read-out: oral bioavailability): 64 to 78%
Compound: COc1cc2nccc(Oc3ccc(NC(=O)NC4CC4)c(Cl)c3)c2cc1C(N)=O [lenvatinib, Lenvatinib]
